Laboratory results from US9023821B2, “Use of MicroRNA for treating diseases associated with a dysfunction of the cilia in multiciliated epithelial cells” (Centre National de la Recherche Scientifique, priority 2009, dated 2015).

Experiments:
[1] = tested on: human airway epithelial cells (HAECs); test: High-throughput sequencing (HTS) of miRNAs at four stages of differentiation of HAECs; settings: for Modulation (ratio of the level of intensity of expression in log2 in two stages of differentiation) measured by high-throughput sequencing, D7 − D0 / Modulation (ratio of the level of intensity of expression in log2 in two stages of differentiation) measured by high-throughput sequencing, FC − D7 / Modulation (ratio of the level of intensity of expression in log2 in two stages of differentiation) measured by high-throughput sequencing, WD − D0 / Modulation (ratio of the level of intensity of expression in log2 in two stages of differentiation) measured by high-throughput sequencing, WD − FC / Level of intensity of expression in log2 measured by high-throughput sequencing, D0 / Level of intensity of expression in log2 measured by high-throughput sequencing, D7 / Level of intensity of expression in log2 measured by high-throughput sequencing, FC / Level of intensity of expression in log2 measured by high-throughput sequencing, WD: Table VI; for Level of intensity of expression in log2 At the differentiated stage (WD) measured in HTS: healthy human airway epithelial tissue; for Level of intensity of expression in log2 measured by high-throughput sequencing, D0: stage D0; for Level of intensity of expression in log2 measured by high-throughput sequencing, D7: stage D7; for Level of intensity of expression in log2 measured by high-throughput sequencing, FC: stage FC; for Level of intensity of expression in log2 At the differentiated stage (WD) measured in HTS / Level of intensity of expression in log2 measured by high-throughput sequencing, WD: stage WD
Text: The total RNAs were extracted from HAECs cultivated at the air-liquid interface at four stages of differentiation: ALI-D0 (0 day), ALI-D7 (7 days), ALI-FC (during appearance of the first cilia at about 14 days) and ALI-WD (wholly differentiated at about 21 days). The cells are lysed in reagent with Trizol® (Invitrogen). The total RNAs containing small RNAs and microRNAs are purified on Qiagen RNEasy columns (Qiagen) according to the supplier's instructions.
The total RNAs containing small RNAs and microRNAs are isolated as before. The procedure is based on the Applied Biosystems Ligase-Enhanced Genome Detection technology (LEGenD™); the SOLiD™ Small RNA Expression kit (Applied Biosystems, France) was used. With this method it is possible to convert the small RNAs of a sample into a library of double-stranded DNA; it was developed by Applied Biosystems SOLiD™ System for a new generation of high-throughput sequencing.
The high-throughput sequencing of the microRNAs was carried out according to the supplier's recommendations. Briefly, the total RNAs containing the small RNAs are hybridized (65° C., 10 min, then at 16° C., 5 min) and ligated (16° C., 2-16 h in a thermocycler) with the Adaptor Mix A for producing a matrix for sequencing the 5′ end of the small RNAs, or with the Adaptor Mix B for sequencing the 3′ end. The samples are then reverse-transcribed (42° C., 30 min) to synthesize the complementary DNA (cDNA). The library of small RNAs is amplified by PCR and after migration on polyacrylamide gel the amplified small RNAs are cut out and extracted from the gel according to their size (length of about 105-150 bases, according to the supplier's instructions), eluted and resuspended in nuclease-free water. The concentration of nucleic acids is then measured and normalized before proceeding with preparation of the samples for sequencing.
For each microRNA sequenced, the number of sequences of the 5p strand and of the 3p strand of the microRNA was normalized to 10^6 sequences and converted to percentage abundance of expression for each of the microRNAs. The data were then normalized according to a linear model and an empirical Bayesian method using software R. For subsequent analyses, only the microRNAs were retained for which the percentage expression (or abundance) is greater than 1% of the total of the microRNAs in at least one culture condition, with a |Log2 Ratio| below 0.5 and an adjusted P-value below 0.05.

[2] = tested on: human airway epithelial cells (HAECs); test: Agilent miRNA chips, miRNA expression at four stages of differentiation of HAECs; settings: for Modulation (ratio of the level of intensity of expression in log2 in two stages of differentiation) measured with the Agilent chips, D7 − D0 / Modulation (ratio of the level of intensity of expression in log2 in two stages of differentiation) measured with the Agilent chips, FC − D7 / Modulation (ratio of the level of intensity of expression in log2 in two stages of differentiation) measured with the Agilent chips, WD − D0 / Modulation (ratio of the level of intensity of expression in log2 in two stages of differentiation) measured with the Agilent chips, WD − FC / Level of intensity of expression in log2 measured with the Agilent chips, D0 / Level of intensity of expression in log2 measured with the Agilent chips, D7 / Level of intensity of expression in log2 measured with the Agilent chips, FC / Level of intensity of expression in log2 measured with the Agilent chips, WD: Table VI; for Modulation (ratio of the level of intensity of expression in log2 at two stages of differentiation), FC − D7 / Modulation (ratio of the level of intensity of expression in log2 at two stages of differentiation), WD − FC: Agilent miRNA chips, Table V; for Level of intensity of expression in log2 measured with the Agilent chips, D0: stage D0; for Level of intensity of expression in log2 measured with the Agilent chips, D7: stage D7; for Level of intensity of expression in log2 measured with the Agilent chips, FC: stage FC; for Level of intensity of expression in log2 measured with the Agilent chips, WD: stage WD
Text: In parallel with the high-throughput sequencing of the microRNAs, the repertoire of expression of the microRNAs (microRNAome) is investigated using the technology of Agilent® microRNA chips. For this, RNA samples from the same patients as before were used, labeled and hybridized on Agilent® miRNA chips (Human miRNA Microarray v2, containing 866 human miRNAs and 89 human viral miRNAs, i.e. all the human miRNAs contained and referenced in Sanger miRBase v.12.0, Agilent Technologies, France) using the “miRNA labeling and hybridization” kit, following the supplier's instructions (Agilent Technologies).
The inventors then used the Agilent miRNA chips to investigate the repertoire of expression of the miRNAs of the human airway epithelium and compare the results obtained in high-throughput sequencing with those obtained with Agilent® commercial miRNA chips.

[3] = tested on: basal cells and pyramidal cells of the airway epithelium; test: miRNA expression in sorted basal cells versus pyramidal cells (ciliated + secretory), HTS and Agilent chips; parameters: species or system human; settings: for Modulation of expression of the miRNAs in pyramidal cells (323(−)) relative to basal cells 323(+): HTS and Agilent chips; for Intensity of the level of expression in log2 in pyramidal cells (323(−)): pyramidal cells (ciliated + secretory)
Procedure: After dissociation of the stroma of nasal polyps, the epithelial cells (about 20.10^6) are incubated in PBS-BSA-EDTA for 30 min and then incubated with labeled antibody CD151-PE and anti-TF (tissue factor)-FITC for 20 min, 4° C. (see Hajj, R. et al., Stem Cells 25, 139-148 (2007)). After washing twice, the cells are taken up in PBS-EDTA and incubated with DAPI for labeling the cells whose integrity has been altered.
Cell sorting was carried out on the FACSAria sorter (BD Biosciences) equipped with 3 lasers, blue, red and violet. Dead cells, aggregates and double cells were excluded. The doubly positive population of basal cells (CD151+/FT+) and the negative population of cylindrical cells (containing ciliated cells and mucus-secreting cells) (CD151−/FT−) were selected and sorted at a rate of 5000 events/s ([…]). The purity and identity of the sorted cells were then verified by cytometry and immunocytochemistry.
Like the native airway epithelium, the model of differentiation in vitro used in these tests consists of basal cells, ciliated cells and mucus-secreting cells. In order to identify the repertoires of the miRNAs specific to each of the cellular types, the inventors used cell sorting by flow cytometry by means of specific markers (Hajj, R. et al. 2007). Using this technique, adult airway progenitor cells (corresponding a priori to basal cells) were isolated, selected and sorted (such cells appear doubly positive for tetraspanin CD151 and for the tissue factor) from the pyramidal cells (i.e. ciliated cells and mucus-secreting cells) which appear negative for these same markers. These were purified from polyps or from nasal conchae obtained from 3 separate donors.
After extracting the total RNAs, the expression profiles of the miRNAs were established by means of Agilent® commercial chips or by high-throughput sequencing (HTS). […] For the first time, the inventors thus attribute a repertoire of expression of the miRNAs specifically to separate cellular types of the airway epithelium during differentiation.

Substance | Modulation (ratio of the level of intensity of expression in log2 in two stages of differentiation) measured by high-throughput sequencing, D7 − D0 [1] [log2] | Modulation (ratio of the level of intensity of expression in log2 in two stages of differentiation) measured by high-throughput sequencing, FC − D7 [1] [log2] | Modulation (ratio of the level of intensity of expression in log2 in two stages of differentiation) measured by high-throughput sequencing, WD − D0 [1] [log2] | Modulation (ratio of the level of intensity of expression in log2 in two stages of differentiation) measured by high-throughput sequencing, WD − FC [1] [log2] | Level of intensity of expression in log2 At the differentiated stage (WD) measured in HTS [1] [log2] | Level of intensity of expression in log2 measured by high-throughput sequencing, D0 [1] [log2] | Level of intensity of expression in log2 measured by high-throughput sequencing, D7 [1] [log2] | Level of intensity of expression in log2 measured by high-throughput sequencing, FC [1] [log2] | Level of intensity of expression in log2 measured by high-throughput sequencing, WD [1] [log2] | Modulation (ratio of the level of intensity of expression in log2 in two stages of differentiation) measured with the Agilent chips, D7 − D0 [2] [log2] | Modulation (ratio of the level of intensity of expression in log2 at two stages of differentiation), FC − D7 [2] [log2] | Modulation (ratio of the level of intensity of expression in log2 in two stages of differentiation) measured with the Agilent chips, FC − D7 [2] [log2] | Modulation (ratio of the level of intensity of expression in log2 in two stages of differentiation) measured with the Agilent chips, WD − D0 [2] [log2] | Modulation (ratio of the level of intensity of expression in log2 at two stages of differentiation), WD − FC [2] [log2] | Modulation (ratio of the level of intensity of expression in log2 in two stages of differentiation) measured with the Agilent chips, WD − FC [2] [log2] | Level of intensity of expression in log2 measured with the Agilent chips, D0 [2] [log2] | Level of intensity of expression in log2 measured with the Agilent chips, D7 [2] [log2] | Level of intensity of expression in log2 measured with the Agilent chips, FC [2] [log2] | Level of intensity of expression in log2 measured with the Agilent chips, WD [2] [log2] | Modulation of expression of the miRNAs in pyramidal cells (323(−)) relative to basal cells 323(+) [3] | further results
hsa-let-7c: human miRNA, SEQ ID No. 159 (UGAGGUAGUAGGUUGUAUGGUU; expressed or natural sequence; listed as Homo sapiens) | 0.14 | 0.21 | 0.90 | 0.55 | 7.86 | 6.96 | 7.10 | 7.31 | 7.86 | 1.61 | −0.71 | −0.71 | 1.05 | 0.14 | 0.14 | 9.10 | 10.71 | 10.00 | 10.15 | −0.48 | Intensity of the level of expression in log2 in basal cells (323(+)) [3]: 9.43 log2; Intensity of the level of expression in log2 in pyramidal cells (323(−)) [3]: 8.95 log2
hsa-let-7e: human miRNA, SEQ ID No. 160 (UGAGGUAGGAGGUUGUAUAGUU; expressed or natural sequence; listed as Homo sapiens) | 0.38 | −0.27 | 0.18 | 0.07 | 7.60 | 7.42 | 7.80 | 7.53 | 7.60 | 1.38 | −0.57 | −0.57 | 0.95 | 0.15 | 0.15 | 8.53 | 9.91 | 9.34 | 9.48 | −1.42 | Intensity of the level of expression in log2 in basal cells (323(+)) [3]: 8.24 log2; Intensity of the level of expression in log2 in pyramidal cells (323(−)) [3]: 6.82 log2
